These results are taken from patent US20240116985A1, “STAPLED PEPTIDES AND METHODS THEREOF” (priority 2020, published 2024).

What is called IC50 is the concentration at which inhibition is half-maximal.

The target of assay [1] is T1, beta-catenin/TCF4 engagement (Homo sapiens, UniProt P35222).
T1 construct: expressed in transfected cells; host or cells: HEK293
T1 sequence (P35222 1-781): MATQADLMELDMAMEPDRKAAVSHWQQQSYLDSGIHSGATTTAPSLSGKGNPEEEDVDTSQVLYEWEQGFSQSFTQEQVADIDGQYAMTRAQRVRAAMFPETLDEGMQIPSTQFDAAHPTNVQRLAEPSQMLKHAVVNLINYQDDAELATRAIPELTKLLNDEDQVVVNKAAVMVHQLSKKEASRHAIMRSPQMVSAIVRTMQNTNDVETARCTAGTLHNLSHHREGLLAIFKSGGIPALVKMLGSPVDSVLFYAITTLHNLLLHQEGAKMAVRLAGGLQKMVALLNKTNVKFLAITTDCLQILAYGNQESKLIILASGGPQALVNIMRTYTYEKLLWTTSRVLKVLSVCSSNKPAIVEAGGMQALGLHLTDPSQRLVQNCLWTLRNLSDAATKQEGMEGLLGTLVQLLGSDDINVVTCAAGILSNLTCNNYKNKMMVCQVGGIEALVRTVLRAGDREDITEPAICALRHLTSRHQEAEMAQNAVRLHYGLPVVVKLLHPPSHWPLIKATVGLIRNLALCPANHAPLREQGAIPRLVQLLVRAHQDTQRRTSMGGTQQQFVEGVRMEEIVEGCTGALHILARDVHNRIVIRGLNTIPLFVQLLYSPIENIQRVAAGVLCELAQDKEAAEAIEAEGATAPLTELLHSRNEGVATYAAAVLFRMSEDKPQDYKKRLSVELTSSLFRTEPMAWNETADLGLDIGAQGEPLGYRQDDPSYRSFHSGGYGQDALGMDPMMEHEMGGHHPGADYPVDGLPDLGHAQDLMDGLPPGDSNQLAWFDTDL
Nature of the assay: Nano-BRET target engagement assay (B-cat-Halo & TCF4-Luc in HEK293 cells). The assay is classed as cell-based. The note with it: absolute IC50; read-out: NanoBRET Abs IC50. (In general: Bioluminescence resonance energy transfer reports proximity on the nanometre scale.)

Assay [2] has as its target T2, full-length beta-Catenin (Uniprot ID P35222) (Homo sapiens, UniProt P35222).
T2 construct: 10 nM full-length beta-Catenin (Uniprot ID P35222)
T2 sequence (P35222 1-781): T1 sequence (P35222 1-781)
Nature of the assay: Fluorescence polarization IC50 (beta-catenin / 5FAM-TCF4 10-53 competition). The class given is binding. Particulars: fluorescence polarization; read-out: beta-Catenin FP IC50. In general terms: Polarisation of emitted light reports the rotation of a fluorescent probe.

As for `CC(=O)N1CCC[C@]12CC=CCCCC1(CCCC=CCCCOC(=O)N3CC[C@@](C(=O)N[C@@H](Cc4ccccc4C(F)(F)F)C(=O)N[C@@H](Cc4csc5ccccc45)C(=O)N[C@@H](CCC(N)=O)C(=O)N[C@@H](CC(C)C)C(=O)NC4(C(N)=O)CCCC4)(C3)NC(=O)[C@H](CC(C)C)NC(=O)[C@H](Cc3ccccc3)NC(=O)[C@H](C)NC(=O)[C@H](C)NC(=O)[C@H](Cc3cccc(C(=O)O)c3)NC(=O)[C@H](CC(=O)O)NC1=O)NC(=O)[C@H](CC(C)(C)C)NC(=O)[C@H](CC(=O)O)NC2=O` (stereo partly drawn) [I-2387, Ac-PL3-Asp-Npg-B5-Asp-3COOHF-Ala-Ala-Phe-Leu-PyrS2-2F3MeF-BztA-Gln-Leu-CyLeu-NH2], the IC50 is 7100 nM in assay [1] and 120 nM in assay [2].

Regarding `CC(=O)N1CCC[C@]12CC=CCCCC1(CCCC=CCCCOC(=O)N3CC[C@@](C(=O)N[C@@H](Cc4ccccc4C(F)(F)F)C(=O)N[C@@H](Cc4csc5ccccc45)C(=O)N[C@@H](CCC(N)=O)C(=O)N[C@@H](CC(C)C)C(=O)N[C@@H](Cc4ccc(O)cc4)C(N)=O)(C3)NC(=O)[C@H](CC(C)C)NC(=O)[C@H](Cc3ccccc3)NC(=O)[C@H](C)NC(=O)[C@H](C)NC(=O)[C@H](Cc3cccc(C(=O)O)c3)NC(=O)[C@H](CC(=O)O)NC1=O)NC(=O)[C@H](CC(C)(C)C)NC(=O)[C@H](CC(=O)O)NC2=O` (stereo partly drawn) [I-2392, Ac-PL3-Asp-Npg-B5-Asp-3COOHF-Ala-Ala-Phe-Leu-PyrS2-2F3MeF-BztA-Gln-Leu-Tyr-NH2], the IC50 is 8600 nM in assay [1] and 461 nM in assay [2].

Turning to `CC(=O)N1CCC[C@]12CC=CCCCC1(CCCC=CCCCOC(=O)N3CC[C@@](C(=O)N[C@@H](Cc4ccccc4C(F)(F)F)C(=O)N[C@@H](Cc4csc5ccccc45)C(=O)N[C@@H](CCC(N)=O)C(=O)N[C@@H](CC(C)C)C(=O)N[C@H](CC(C)C)C(N)=O)(C3)NC(=O)[C@H](CC(C)C)NC(=O)[C@H](Cc3ccccc3)NC(=O)[C@H](C)NC(=O)[C@H](C)NC(=O)[C@H](Cc3cccc(C(=O)O)c3)NC(=O)[C@H](CC(=O)O)NC1=O)NC(=O)[C@H](CC(C)(C)C)NC(=O)[C@H](CC(=O)O)NC2=O` (stereo partly drawn) [I-2396, Ac-PL3-Asp-Npg-B5-Asp-3COOHF-Ala-Ala-Phe-Leu-PyrS2-2F3MeF-BztA-Gln-Leu-dLeu-NH2], the concentration for half-maximal inhibition (IC50) in assay [1] was 8300 nM; in assay [2] it was 187 nM.

For the compound `CC(=O)N1CCC[C@]12CC=CCCCC1(CCCC=CCCCOC(=O)N3CC[C@@](C(=O)N[C@@H](Cc4ccccc4C(F)(F)F)C(=O)N[C@@H](Cc4csc5ccccc45)C(=O)N[C@@H](CCC(N)=O)C(=O)N[C@@H](CC(C)C)C(=O)N[C@@H](C(N)=O)[C@H](C)O)(C3)NC(=O)[C@H](CC(C)C)NC(=O)[C@H](Cc3ccccc3)NC(=O)[C@H](C)NC(=O)[C@H](C)NC(=O)[C@H](Cc3cccc(C(=O)O)c3)NC(=O)[C@H](CC(=O)O)NC1=O)NC(=O)[C@H](CC(C)(C)C)NC(=O)[C@H](CC(=O)O)NC2=O` (stereo partly drawn) [I-2397, Ac-PL3-Asp-Npg-B5-Asp-3COOHF-Ala-Ala-Phe-Leu-PyrS2-2F3MeF-BztA-Gln-Leu-dThr-NH2], the IC50 was found to be 7800 nM in assay [1] and 53 nM in assay [2].

Consider `C#CC(=O)N1CCC[C@]12CC=CCCCC1(CCCC=CCCCOC(=O)N3CC[C@@](C(=O)N[C@@H](Cc4ccsc4)C(=O)N[C@@H](Cc4csc5ccccc45)C(=O)N[C@@H](Cc4c[nH]cn4)C(N)=O)(C3)NC(=O)[C@H](CCC(N)=O)NC(=O)[C@H](Cc3ccccc3)NC(=O)[C@H](C)NC(=O)[C@H](C)NC(=O)[C@H](CC(=O)O)NC(=O)[C@H](CC(=O)O)NC1=O)NC(=O)[C@H](CC(C)(C)C)NC(=O)[C@H](CC(=O)O)NC2=O` (stereo partly drawn) [I-2402, PropynOH-PL3-Asp-Npg-B5-Asp-Asp-Ala-Ala-Phe-Gln-PyrS2-3Thi-BztA-His-NH2], for which the results for the half-inhibitory concentration (IC50) in assay [1] and in assay [2] were above 20000 nM and 16 nM, respectively.

Consider `C#CC(=O)N1CCC[C@]12CC=CCCCC1(CCCC=CCCCOC(=O)N3CC[C@@](C(=O)N[C@@H](Cc4ccccc4Cl)C(=O)N[C@@H](Cc4csc5ccccc45)C(=O)N[C@@H](C)C(N)=O)(C3)NC(=O)[C@H](CC(C)C)NC(=O)[C@H](Cc3ccccc3)NC(=O)[C@H](C)NC(=O)[C@H](C)NC(=O)[C@H](Cc3cccc(C(=O)O)c3)NC(=O)[C@H](CC(=O)O)NC1=O)NC(=O)[C@H](CC(C)(C)C)NC(=O)[C@H](CC(=O)O)NC2=O` (stereo partly drawn) [I-2403, PropynOH-PL3-Asp-Npg-B5-Asp-3COOHF-Ala-Ala-Phe-Leu-PyrS2-2C1F-BztA-Ala-NH2], for which the results for the IC50 in assay [1] and in assay [2] were above 20000 nM and 12 nM, respectively.

For the compound `CC(=O)N1CCC[C@]12CC=CCCCC1(CCCC=CCCCOC(=O)N3CC[C@@](C(=O)N[C@@H](Cc4ccsc4)C(=O)N[C@@H](Cc4csc5ccccc45)C(=O)N[C@@H](CCC(N)=O)C(N)=O)(C3)NC(=O)[C@H](CCCNC(=N)N)NC(=O)[C@H](Cc3ccccc3)NC(=O)[C@H](C)NC(=O)C(C)(C)NC(=O)[C@H]([C@@H](C)O)NC(=O)[C@H](CC(N)=O)NC1=O)NC(=O)[C@H](CC(C)(C)C)NC(=O)[C@H](CC(=O)O)NC2=O` (stereo partly drawn) [I-2407, Ac-PL3-Asp-Npg-B5-Asn-Thr-Aib-Ala-Phe-Arg-PyrS2-3Thi-BztA-Gln-NH2], the 50% inhibitory concentration (IC50) in assay [1] was above 20000 nM; in assay [2], 138 nM.

Take `CC(=O)N1CCC[C@]12CC=CCCCC1(CCCC=CCCCOC(=O)N3CC[C@@](C(=O)N[C@@H](Cc4ccsc4)C(=O)N[C@@H](Cc4csc5ccccc45)C(=O)N[C@@H](CCC(N)=O)C(N)=O)(C3)NC(=O)[C@H]([C@@H](C)O)NC(=O)[C@H](Cc3ccccc3)NC(=O)[C@H](C)NC(=O)C(C)(C)NC(=O)[C@H]([C@@H](C)O)NC(=O)[C@H](CC(N)=O)NC1=O)NC(=O)[C@H](CC(C)(C)C)NC(=O)[C@H](CC(=O)O)NC2=O` (stereo partly drawn) [I-2409, Ac-PL3-Asp-Npg-B5-Asn-Thr-Aib-Ala-Phe-Thr-PyrS2-3Thi-BztA-Gln-NH2]: the IC50 was found to be 50000 nM in assay [1] and 397 nM in assay [2].

In the case of `CC(=O)N1CCC[C@]12CC=CCCCC1(CCCC=CCCCOC(=O)N3CC[C@@](C(=O)N[C@@H](Cc4ccsc4)C(=O)N[C@@H](Cc4csc5ccccc45)C(=O)N[C@@H](CCC(N)=O)C(N)=O)(C3)NC(=O)[C@H](Cc3c[nH]cn3)NC(=O)[C@H](Cc3ccccc3)NC(=O)[C@H](C)NC(=O)C(C)(C)NC(=O)[C@H]([C@@H](C)O)NC(=O)[C@H](CC(N)=O)NC1=O)NC(=O)[C@H](CC(C)(C)C)NC(=O)[C@H](CC(=O)O)NC2=O` (stereo partly drawn) [I-2410, Ac-PL3-Asp-Npg-B5-Asn-Thr-Aib-Ala-Phe-His-PyrS2-3Thi-BztA-Gln-NH2], the half-inhibitory concentration (IC50) in assay [1] was above 20000 nM; in assay [2], 304 nM.

Regarding `CC(=O)N1CCC[C@]12CC=CCCCC1(CCCC=CCCCOC(=O)N3CC[C@@](C(=O)N[C@@H](Cc4ccsc4)C(=O)N[C@@H](Cc4csc5ccccc45)C(=O)N[C@@H](Cc4c[nH]cn4)C(N)=O)(C3)NC(=O)[C@H](CC(N)=O)NC(=O)[C@H](Cc3ccccc3)NC(=O)[C@H](C)NC(=O)C(C)(C)NC(=O)[C@H]([C@@H](C)O)NC(=O)[C@H](CC(N)=O)NC1=O)NC(=O)[C@H](CC(C)(C)C)NC(=O)[C@H](CC(=O)O)NC2=O` (stereo partly drawn) [I-2414, Ac-PL3-Asp-Npg-B5-Asn-Thr-Aib-Ala-Phe-Asn-PyrS2-3Thi-BztA-His-NH2], the half-inhibitory concentration (IC50) in assay [1] was above 20000 nM; in assay [2] it was 7 nM.

With `CC(=O)N1CCC[C@]12CC=CCCCC1(CCCC=CCCCOC(=O)N3CC[C@@](C(=O)N[C@@H](Cc4ccsc4)C(=O)N[C@@H](Cc4csc5ccccc45)C(=O)N[C@@H](CC(N)=O)C(N)=O)(C3)NC(=O)[C@H](CC(N)=O)NC(=O)[C@H](Cc3ccccc3)NC(=O)[C@H](C)NC(=O)C(C)(C)NC(=O)[C@H]([C@@H](C)O)NC(=O)[C@H](CC(N)=O)NC1=O)NC(=O)[C@H](CC(C)(C)C)NC(=O)[C@H](CC(=O)O)NC2=O` (stereo partly drawn) [I-2415, Ac-PL3-Asp-Npg-B5-Asn-Thr-Aib-Ala-Phe-Asn-PyrS2-3Thi-BztA-Asn-NH2], the IC50 was above 20000 nM in assay [1] and 147 nM in assay [2].

For `CC(=O)N1CCC[C@]12CC=CCCCC1(CCCC=CCCCOC(=O)N3CC[C@@](C(=O)N[C@@H](Cc4ccsc4)C(=O)N[C@@H](Cc4ccc(Cl)c(Cl)c4)C(=O)N[C@@H](CCC(N)=O)C(N)=O)(C3)NC(=O)[C@H](CC(N)=O)NC(=O)[C@H](Cc3ccccc3)NC(=O)[C@H](C)NC(=O)C(C)(C)NC(=O)[C@H]([C@@H](C)O)NC(=O)[C@H](CC(N)=O)NC1=O)NC(=O)[C@H](CC(C)(C)C)NC(=O)[C@H](CC(=O)O)NC2=O` (stereo partly drawn) [I-2417, Ac-PL3-Asp-Npg-B5-Asn-Thr-Aib-Ala-Phe-Asn-PyrS2-3Thi-34C1F-Gln-NH2], the IC50 amounted to 21600 nM in assay [1] and 158 nM in assay [2].

`CC(=O)N1CCC[C@]12CC=CCCCC1(CCCC=CCCCOC(=O)N3CC[C@@](C(=O)N[C@@H](Cc4ccccc4)C(=O)N[C@@H](Cc4csc5ccccc45)C(=O)N[C@@H](CCCCN)C(N)=O)(C3)NC(=O)[C@H](CC(C)C)NC(=O)[C@H](Cc3ccccc3)NC(=O)[C@H](C)NC(=O)[C@H](CCO)NC(=O)[C@H](CCC(N)=O)NC(=O)[C@H](CC(=O)O)NC1=O)NC(=O)[C@H](CC1CCCCC1)NC(=O)[C@H](CC(N)=O)NC2=O` (stereo partly drawn) [I-2419, Ac-PL3-Asn-Cha-B5-Asp-Gln-Hse-Ala-Phe-Leu-PyrS2-Phe-BztA-Lys-NH2]: the IC50 in assay [1] was above 20000 nM; in assay [2] it was 203 nM.
